molecular target: Huntingtin (Homo sapiens, UniProt P42858); test: Inhibition of Huntingtin protein (unknown origin) incubated for overnight in presence of MW1/MAB2166 monoclonal antibody by ELISA-based MSD electrochemiluminescence assay
Sequence (P42858 whole entry): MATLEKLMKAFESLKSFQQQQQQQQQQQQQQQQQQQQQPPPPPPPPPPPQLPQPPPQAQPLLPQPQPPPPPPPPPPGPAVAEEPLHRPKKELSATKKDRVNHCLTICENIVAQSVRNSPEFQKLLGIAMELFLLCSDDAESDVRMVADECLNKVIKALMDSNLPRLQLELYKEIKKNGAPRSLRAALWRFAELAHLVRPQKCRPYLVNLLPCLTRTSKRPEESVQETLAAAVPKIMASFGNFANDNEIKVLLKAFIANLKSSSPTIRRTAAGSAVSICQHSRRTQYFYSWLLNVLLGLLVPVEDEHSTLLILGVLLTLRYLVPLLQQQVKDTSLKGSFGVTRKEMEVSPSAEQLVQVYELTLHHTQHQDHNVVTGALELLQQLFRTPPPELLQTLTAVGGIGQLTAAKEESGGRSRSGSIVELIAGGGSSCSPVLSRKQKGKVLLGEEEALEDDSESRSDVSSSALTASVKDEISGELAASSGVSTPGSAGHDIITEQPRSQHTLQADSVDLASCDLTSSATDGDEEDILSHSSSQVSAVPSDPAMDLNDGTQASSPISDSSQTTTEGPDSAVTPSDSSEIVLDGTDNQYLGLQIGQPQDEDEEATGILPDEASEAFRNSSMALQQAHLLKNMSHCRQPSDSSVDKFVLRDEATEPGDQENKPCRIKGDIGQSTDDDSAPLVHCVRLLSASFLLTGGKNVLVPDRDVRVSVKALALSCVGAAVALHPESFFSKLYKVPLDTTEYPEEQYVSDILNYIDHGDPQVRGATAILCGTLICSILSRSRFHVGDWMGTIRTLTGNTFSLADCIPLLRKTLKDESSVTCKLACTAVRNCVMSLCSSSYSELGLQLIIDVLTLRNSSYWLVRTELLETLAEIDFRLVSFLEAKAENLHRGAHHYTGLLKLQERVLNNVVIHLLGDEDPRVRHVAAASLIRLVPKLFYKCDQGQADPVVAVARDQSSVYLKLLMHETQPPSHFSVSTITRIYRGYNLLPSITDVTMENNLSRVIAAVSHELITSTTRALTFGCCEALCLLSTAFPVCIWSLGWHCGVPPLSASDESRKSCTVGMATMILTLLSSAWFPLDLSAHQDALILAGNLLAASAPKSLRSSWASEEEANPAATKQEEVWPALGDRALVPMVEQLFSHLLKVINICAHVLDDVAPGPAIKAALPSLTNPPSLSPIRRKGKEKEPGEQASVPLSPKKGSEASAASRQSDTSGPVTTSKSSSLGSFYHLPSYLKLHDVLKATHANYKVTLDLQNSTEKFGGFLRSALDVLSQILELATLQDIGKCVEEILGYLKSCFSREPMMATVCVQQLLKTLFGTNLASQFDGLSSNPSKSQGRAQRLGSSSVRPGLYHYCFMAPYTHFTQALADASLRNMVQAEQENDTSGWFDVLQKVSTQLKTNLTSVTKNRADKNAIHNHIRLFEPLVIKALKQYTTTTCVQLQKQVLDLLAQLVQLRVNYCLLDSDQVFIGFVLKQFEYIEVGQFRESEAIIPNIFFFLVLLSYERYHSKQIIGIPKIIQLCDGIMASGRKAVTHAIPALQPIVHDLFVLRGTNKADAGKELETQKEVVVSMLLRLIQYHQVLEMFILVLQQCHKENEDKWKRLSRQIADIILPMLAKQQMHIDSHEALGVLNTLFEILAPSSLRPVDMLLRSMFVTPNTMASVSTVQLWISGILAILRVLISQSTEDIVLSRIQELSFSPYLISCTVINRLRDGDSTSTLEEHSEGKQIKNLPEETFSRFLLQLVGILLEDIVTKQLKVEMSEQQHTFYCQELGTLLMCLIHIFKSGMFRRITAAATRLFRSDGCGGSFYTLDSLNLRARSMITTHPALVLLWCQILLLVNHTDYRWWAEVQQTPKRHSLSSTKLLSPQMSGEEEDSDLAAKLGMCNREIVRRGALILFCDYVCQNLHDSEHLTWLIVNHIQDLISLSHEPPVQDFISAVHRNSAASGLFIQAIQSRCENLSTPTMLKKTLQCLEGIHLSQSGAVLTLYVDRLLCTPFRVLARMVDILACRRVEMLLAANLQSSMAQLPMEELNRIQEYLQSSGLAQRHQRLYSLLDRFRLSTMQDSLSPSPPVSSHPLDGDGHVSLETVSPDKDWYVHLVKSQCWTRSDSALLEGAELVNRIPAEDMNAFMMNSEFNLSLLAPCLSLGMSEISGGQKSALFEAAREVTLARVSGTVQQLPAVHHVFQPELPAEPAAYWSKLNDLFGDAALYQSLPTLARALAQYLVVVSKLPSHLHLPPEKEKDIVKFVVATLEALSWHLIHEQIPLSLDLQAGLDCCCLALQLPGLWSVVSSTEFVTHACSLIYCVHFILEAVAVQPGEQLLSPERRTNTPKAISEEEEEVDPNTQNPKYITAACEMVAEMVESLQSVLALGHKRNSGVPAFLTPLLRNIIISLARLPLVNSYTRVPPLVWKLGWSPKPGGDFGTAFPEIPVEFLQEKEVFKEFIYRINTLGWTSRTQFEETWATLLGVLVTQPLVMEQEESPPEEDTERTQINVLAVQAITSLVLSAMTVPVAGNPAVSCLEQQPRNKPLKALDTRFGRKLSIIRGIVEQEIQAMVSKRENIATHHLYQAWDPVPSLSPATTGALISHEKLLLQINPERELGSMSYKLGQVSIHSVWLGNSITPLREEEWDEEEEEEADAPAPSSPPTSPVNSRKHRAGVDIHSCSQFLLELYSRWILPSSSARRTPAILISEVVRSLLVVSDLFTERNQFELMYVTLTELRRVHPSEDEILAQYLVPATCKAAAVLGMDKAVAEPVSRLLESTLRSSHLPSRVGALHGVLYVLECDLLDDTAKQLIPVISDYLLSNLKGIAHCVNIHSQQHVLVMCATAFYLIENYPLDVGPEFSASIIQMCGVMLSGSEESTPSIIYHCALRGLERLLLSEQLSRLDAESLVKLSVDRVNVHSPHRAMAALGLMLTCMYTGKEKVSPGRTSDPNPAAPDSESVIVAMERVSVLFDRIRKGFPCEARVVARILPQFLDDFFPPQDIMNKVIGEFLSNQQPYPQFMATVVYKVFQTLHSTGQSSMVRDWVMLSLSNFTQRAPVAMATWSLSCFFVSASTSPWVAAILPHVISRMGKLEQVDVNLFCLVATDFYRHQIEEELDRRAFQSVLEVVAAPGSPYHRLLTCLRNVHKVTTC

| Compound | IC50 |
| --- | --- |
| CC1(C)CC(Nc2cnc(-c3ccc(-c4cn[nH]c4)cc3O)nn2)C(F)C(C)(C)N1 (stereo unspecified) | ≤ 100 nM |
| CN(c1cnc(-c2ccc(-n3nccn3)cc2O)nn1)C1CC(C)(C)NC(C)(C)C1 | ≤ 100 nM |
| CN(c1cnc(-c2ccc(-c3cn[nH]c3F)cc2O)nn1)C1CC(C)(C)NC(C)(C)C1 | ≤ 100 nM |
| Cn1cc(-c2ccc(-c3cnc(NC4CC(C)(C)NC(C)(C)C4)nn3)c(O)c2)cn1 | ≤ 100 nM |
| CN(c1ncc(-c2ccc(-c3ncco3)cc2O)nn1)C1CC(C)(C)NC(C)(C)C1 | ≤ 100 nM |
| CC(C)(C)NC1CCN(c2ncc(-c3ccc(-c4c[nH]nc4C#N)cc3O)nn2)C1 (stereo unspecified) | ≤ 100 nM |

Reference: ChEMBL document CHEMBL4715900, “Novel Substituted Monocyclic Heteroaryl Compounds for Treating Huntington's Disease” (ACS Med Chem Lett, 2021)
